How the values were obtained:
[1] = system: L. (L.) infantum promastigotes; format: cell-based, Leishmania (L.) infantum; settings: compound 1 169.2 µM, sodium azide 10 mM; 2 and 4 h; H2DCFDA; vs untreated
Description: Promastigotes (2 × 10^6/well) were treated with compound 1 (169.2 µM) for 2 and 4 h, at 24°C. Later, H2DCFDA (5 µM) was added and the parasites were incubated for 15 min. Fluorescence was monitored in a spectrofluorometer with excitation and emission wavelengths of 485 and 535 nm, respectively ([19]). Sodium azide (10 mM) was employed as positive control and untreated parasites as negative control.

[2] = system: L. (L.) infantum promastigotes; assay: Total proteins of the parasite; format: cell-based, Leishmania (L.) infantum; settings: promastigotes after treatment
[3] = system: Peritoneal macrophages infected with L. (L.) infantum amastigotes; assay: Nitric oxide in infected macrophages (Griess reagent); format: cell-based, BALB/c mice; settings: compound 1 7.5 to 60 µM, LPS 25 µg/mL; 48 h; vs untreated
Description: L. (L.) infantum (MHOM/BR/1972/LD) promastigotes were maintained in M199 medium supplemented with 10% FBS and 0.25% hemin, pH 7.2 at 24°C. Amastigotes were isolated from golden hamsters (M. auratus) by differential centrifugation of infected spleens and the parasite’s number was determined according to Stauber ([14]). Peritoneal macrophages were obtained from the peritoneal cavity of BALB/c mice and maintained in RPMI-1640 medium supplemented with 10% FBS, pH 7.2 at 37°C.
Peritoneal macrophages (5 × 10^5/well) were infected with L. (L.) infantum amastigotes (10:1 amastigotes/macrophage) for 24 h, at 37°C with 5% CO2. Later, the cells were treated with compound 1 serially diluted (7.5 to 60 µM), under the same conditions described above. After 48 h, the supernatants were collected and incubated with Griess reagent ([28]). […] LPS (25 µg/mL) was employed as the positive control and untreated cells as the negative control ([29]).

[4] = system: L. (L.) infantum promastigotes; assay: Intracellular Ca2+ (Fluo-4 AM); format: cell-based, Leishmania (L.) infantum; settings: 169.2 µM, from 20 min up to 4 h, vs untreated
Description: Promastigotes (2 × 10^6/well) were pretreated with Fluo-4 AM (5 µM) in PBS, for 1 h at 24°C. Then, parasites were treated with compound 1 (169.2 µM). Fluorescence was measured every 20 min up to 4 h in a spectrofluorometer, with excitation and emission wavelengths of 485 nm and 535 nm, respectively ([21]). Triton X-100 0.5% (vol/vol) was employed as positive control and untreated parasites as negative control.

[5] = system: L. (L.) infantum promastigotes; assay: Short-time incubation IC50 assay in promastigotes (MTT); format: cell-based, Leishmania (L.) infantum; settings: Leishmania infantum, promastigotes 2 × 10^6/well, 4 h of treatment, read-out: IC50 (50% inhibitory concentration), short-time incubation
Description: All experiments were performed with L. (L.) infantum promastigotes in the late-grown phase using a Hanks-Balanced Salt Solution medium supplemented with D-glucose (10 mM), exceptions were described. To establish the ideal time and concentration to investigate the mechanism of action (MoA), a new IC50 assay was performed in promastigotes in short-time incubation. Parasites (2 × 10^6/well) were treated with compound 1 serially diluted (1.6 to 300 µM) for 1, 2, 3, and 4 h, at 24°C. Parasite viability was determined using the MTT colorimetric method ([16]). Untreated cells were employed as a negative control.

[6] = system: L. (L.) infantum promastigotes; assay: Cell cycle (propidium iodide, flow cytometry); format: cell-based, Leishmania (L.) infantum; settings: 24 h; compound 1 169.2 µM, miltefosine 25 µM
Description: Promastigotes (2 × 10^6/well) in exponential phase, were treated with compound 1 (169.2 µM) in M199 medium supplemented with 10% FBS and 0.25% hemin, pH 7.2, for 24 h at 24°C. In sequence, 70% (vol/vol) ice-cold ethanol was used for cell permeabilization overnight at −20°C. Then, the parasites were incubated with propidium iodide (10 µg/mL) and RNase A (20 µg/mL) for 30 min. […] Miltefosine (25 µM) was employed as positive control and untreated parasites as negative control ([25]).

[7] = In vivo pharmacokinetic study, intraperitoneal; set-up: species or system Wistar rats; settings: 5 mg/kg intraperitoneal; for half-life: 5 mg/kg
Description: The detection and quantification of compound 1 in the blood matrices were performed after sample processing, using a liquid-liquid extraction methodology. First, 100 µL of plasma was enriched with 10 µL of PI (0.8 µg/mL). Subsequently, 500 µL of hexane was added and the mixture was vortexed for 1 min and centrifuged at 22,082 × g for 5 min. The organic phase was collected in glass tubes and the aqueous phase was subjected to the liquid-liquid extraction procedure again. In the end, the combined organic samples were completely evaporated at 60°C under nitrogen flow and reconstituted in 100 µL of 40:60 ACN:H2O + 0.1% orthophosphoric acid (pH 2.08). Finally, the extracts were centrifuged at 22,082 × g for 2 min and injected into the chromatographic system. Chromatographic analyses by HPLC were performed using a C18 column (Purospher Star LiChroCART, 55 × 4 mm, 3 µm) with gradient elution (Table 1).
Compound 1 (5 mg/kg) was administered (10 mL/kg in saline-sodium-chloride-0.9%) by intraperitoneal route, to six Wistar rats. Blood samples were collected from the caudal vein at 30 min, 1, 2, 3, 5, 6, 8, 12, and 24 h post-dosing. Plasma samples were prepared as described in the previous section and analyzed by HPLC. Concentrations below the LLOQ were considered as zero. Pharmacokinetic profile was obtained using the WinNonlin 6.4 software, determining different parameters, including half-life time (T½); maximum time (Tmax); maximum plasma concentration (Cmax); area under the curve from time zero to the last measurable concentration time (AUC0-t); area under the curve from zero to infinity (AUC0-inf); percentage of area under the curve extrapolated from the last measurable concentration time to infinity (AUCextrap); and meantime of residence (MRT).

[8] = Wistar, rat, plasma, ip, female rats
[9] = Wistar, rat, plasma, ip, male rats
[10] = both sexes, rat, plasma, ip, single dose, Wistar rats, males + females (mean ± SD)

For `C=CCc1cc(OC)c(OCc2ccc(OC)cc2)c(Oc2ccc(CN3CCOCC3)cc2OC)c1` [compound 1, 4-(4-(5-allyl-3-methoxy-2-((4-methoxybenzyl)oxy)phenoxy)-3-methoxybenzyl)morpholine], the ROS levels [1] was “significant reduction”, the total protein level [2] was “increased level of total protein” and the NO levels [3] was “remained similar”. The “intracellular Ca2+ level” value [4] was “fast and increased Ca^2+ level”, the IC50 [5] was 169 µM and the “Proportion of parasites in different phases of the cell cycle (% ± SD): G0/G1” value [6] was 46.6 ± 0.7 %. For the same compound, the “Proportion of parasites in different phases of the cell cycle (% ± SD): M/G2” value [6] was 17.9 ± 0.5%, the “Proportion of parasites in different phases of the cell cycle (% ± SD): S” value [6] was 11.1 ± 1.3% and the “Proportion of parasites in different phases of the cell cycle (% ± SD): Sub G0” value [6] was 7.5 ± 0.7 %. For the same compound, the T1/2 ([7]; single dose, Wistar rats, males + females (mean ± SD)) was 21.08 ± 17.72 h, the AUC(0-t) [7, 8] was 980 ng·h/mL and the Cmax [7, 8] was 200 ng/mL. For the same compound, the MRT [7, 8] was 12.8 h, the Tmax [7, 8] was 0.5 h and the AUC(0-t) [7, 9] was 650 ng·h/mL. For the same compound, the Cmax [7, 9] was 100 ng/mL, the MRT [7, 9] was 41.1 h and the Tmax [7, 9] was 1.5 h. For the same compound, the half-life ([7]; both sexes, Wistar, rat, plasma, ip, single dose, Wistar rats, males + females (mean ± SD)) was 21 h, the AUC(0-inf) [7, 10] was 1270 ± 340 ng·h/mL and the AUC(0-t) [7, 10] was 810 ± 300 ng·h/mL. It also gave a Cmax [7, 10] of 150 ± 80 ng/mL, an MRT [7, 10] of 26.9 ± 23.2 h and a Tmax [7, 10] of 1 ± 1.22 h. It also gave a half-life ([7]; female, Wistar, rat, plasma, ip, female rats) of 10.7 h and a half-life ([7]; male, Wistar, rat, plasma, ip, male rats) of 31.4 h.
